How the values were obtained:
[1] = in vivo; cited from earlier work
[2] = tested on: adult female Sprague-Dawley rats; assay: rat infusion study: loss/recovery of righting reflex and walk (anaesthetic effect); type: in vivo; settings: for minimal effective dose: Rattus norvegicus, iv, total drug administered to achieve loss of righting reflex, i.v. infusion, read-out: LRR Dose; for Walk Time: time from end of infusion to independent locomotion; for RRR Time: time from end of infusion to recovery of righting reflex; for LRR Time: time from onset of i.v. infusion to loss of righting reflex, 20 mg/kg/min initially
Procedure: (§1) All animal experiments were conducted at the Ruakura Research Centre, Hamilton, New Zealand, using experimental protocols reviewed and approved by the Ruakura Animal Ethics Committee (ethics ref 12604).
(§2) Following acquisition of baseline physiologic parameters (heart rate, respiratory rate, PWR, and righting reflex (RR)) adult female Sprague-Dawley rats of approximately 350-450 g were put under non-traumatic restraint and the marginal vein of the tail was cannulated. Ketamine or a compound of the invention at 10 mg/ml was administered via a minibore extension tube adequately secured to the tail. Infusions were commenced at a rate (weight-adjusted) to deliver 20 mg/kg/min initially (until the pedal withdrawal reflex score PWR=1), then were reduced to a rate of 6.7 mg/kg/min. Infusion rate was then titrated in an up-and-down fashion to maintain dorsal recumbency and a PWR=1 to 10 minutes before cessation. Three rats were used in each study, with each group of rats also acting as their own ketamine control. The order of study drug administration was determined by prior odds/evens randomisation with a recovery interval of at least one hour afforded between experiments. PWR and RR were recorded at 1 minute intervals throughout. The times from cessation of infusion to return of righting reflex (RRR), and from cessation of infusion to the animals displaying independent locomotion (walk) were recorded.
Loss of Righting Reflex (LRR):
This is primarily used to assess anaesthetic hypnotic effect. Righting reflex is judged absent when the rat fails to right from a position of dorsal recumbency to a position of sternal recumbency on three attempts performed in rapid succession. Dose to LRR is termed effective potency.

[3] = tested on: adult female Sprague-Dawley rats; assay: rat infusion study: pedal withdrawal reflex PWR = 1 (analgesic effect); type: in vivo; settings: for minimal effective dose: Rattus norvegicus, iv, total drug administered to achieve PWR = 1, i.v. infusion; for PWR = 1 Dose, head-to-head ratio to ketamine / PWR = 1 Time, head-to-head ratio to ketamine: ratio compound/ketamine; for PWR = 1 Time: time from onset of i.v. infusion to PWR = 1
Procedure: as §1, §2
Pedal Withdrawal Reflex (PWR) Scoring:
Nociceptive testing in animals was conducted via 1 second application of constant pressure (firm digital pressure) over the forepaw of the animal. Pedal withdrawal reflex testing is primarily used to assess analgesic effect, and responses are graded accordingly: 0, absent; 1, flicker; 2, moderate withdrawal; 3, fast withdrawal; 4, Fast withdrawal with cry/preceding apnoea (modified from Buitrago, S. et al. J. Amer. Assoc. Lab. Animal. Sci. 2008, 47, 11-17).

[4] = pharmacological, analgesic and anaesthetic properties; cited from earlier work
[5] = tested on: adult female Sprague-Dawley rats; assay: rat infusion study: loss/recovery of righting reflex and walk (anaesthetic effect); type: in vivo; settings: exploratory, mostly single-animal evaluations
[6] = average over the various experiments
[7] = range over the various experiments

Row | SMILES | minimal effective dose [2] | minimal effective dose [3] | potency (in words) ([2]; rat infusion study, discussion) | LRR Dose, head-to-head ratio to ketamine ([2]; ratio compound/ketamine) | LRR Time, head-to-head ratio to ketamine ([2]; ratio compound/ketamine) | Walk Time [2] | RRR Time [2] | LRR Time [2] | PWR = 1 Dose, head-to-head ratio to ketamine [3] | PWR = 1 Time, head-to-head ratio to ketamine [3] | PWR = 1 Time [3] | sedative effect (in words) [5] | also measured
1 | CNC1(c2ccccc2Cl)CCCCC1=O (racemic) [rac-ketamine, (2-o-Chlorophenyl)-2-methylamino-cyclohexanone, reference compound] | 20 ± 1 mg/kg | 26 ± 1 mg/kg |  |  |  |  |  |  |  |  |  |  | half-life [1]: 2 to 3 h; Time to RRR, Average [2, 6]: 1212 ± 318 s; Time to achieve LRR, Average [2, 6]: 61 ± 8 s; Time to walking, Average [2, 6]: 1709 ± 400 s; Total dose to LRR, Average ([2]; average over the various experiments (Table 4 row r6)): 21 ± 7 mg/kg; Time to RRR, Range [2, 7]: 863 to 2040 s; Time to achieve LRR, Range [2, 7]: 51 to 75 s; Time to walking, Range [2, 7]: 1100 to 2340 s; Total dose to LRR, Range ([2]; range over the various experiments (Table 4 row r6)): 17 to 27 mg/kg; Time to PWR = 1, Average [3, 6]: 76 ± 9 s; Total dose to PWR = 1 ([3]; average over the various experiments (Table 4 row r8, second line so named)): 26 ± 4 mg/kg; Time to PWR = 1, Range [3, 7]: 60 to 95 s; Total dose to PWR = 1 ([3]; range over the various experiments (Table 4 row r8, second line so named)): 21 to 34 mg/kg
2 | CN[C@]1(c2ccccc2Cl)CCCCC1=O [(S)-Ketamine] |  |  |  |  |  |  |  |  |  |  |  |  | potency relative to the racemate [4]: about twice as potent
3 | CCOC(=O)CCN(C)C1(c2ccccc2Cl)CCCCC1=O (stereo not drawn) [compound 19, Ethyl 3-((1-(2-chlorophenyl)-2-oxocyclohexyl)(methyl)amino)propanoate] | 95 mg/kg | 99 mg/kg | about as potent as the n-Pr norketamine esters | 4.50 | 4.67 | 0 s | 0 s | 280 s | 3.96 | 4.20 | 290 s | very weak sedative effect | recovery (in words) ([2]; rat infusion study, discussion): very rapid recovery
4 | CCOC(=O)CCCN(C)C1(c2ccccc2Cl)CCCCC1=O.Cl (stereo not drawn) [compound 20, Ethyl 4-((1-(2-chlorophenyl)-2-oxocyclohexyl)(methyl)amino)butanoate Hydrochloride] | 196 mg/kg | 196 mg/kg | less potent | 7.84 | 8.00 | 0 s | 0 s | 600 s | 6.76 | 6.98 | 600 s | weak sedative activity | 
5 | COC(=O)CCCCN(C)C1(c2ccccc2Cl)CCCCC1=O (stereo not drawn) [compound 21, Methyl 5-((1-(2-chlorophenyl)-2-oxocyclohexyl)(methyl)amino)pentanoate] | 145 mg/kg | 148 mg/kg | less potent | 7.25 | 7.37 | 201 s | 0 s | 420 s | 5.29 | 5.30 | 435 s | weak sedative activity | Walk Time, head-to-head ratio to ketamine ([2]; ratio compound/ketamine): 0.09

Source: patent US10239825B2, “Ketamine derivatives” (Auckland Uniservices Limited, priority 2013, dated 2019)
